The source of these data is ChEMBL document CHEMBL5729236, “CIS-morpholinone and other compounds as MDM2 inhibitors for the treatment of cancer” (2022).

E3 ubiquitin-protein ligase Mdm2, sequence (Q00987 whole entry): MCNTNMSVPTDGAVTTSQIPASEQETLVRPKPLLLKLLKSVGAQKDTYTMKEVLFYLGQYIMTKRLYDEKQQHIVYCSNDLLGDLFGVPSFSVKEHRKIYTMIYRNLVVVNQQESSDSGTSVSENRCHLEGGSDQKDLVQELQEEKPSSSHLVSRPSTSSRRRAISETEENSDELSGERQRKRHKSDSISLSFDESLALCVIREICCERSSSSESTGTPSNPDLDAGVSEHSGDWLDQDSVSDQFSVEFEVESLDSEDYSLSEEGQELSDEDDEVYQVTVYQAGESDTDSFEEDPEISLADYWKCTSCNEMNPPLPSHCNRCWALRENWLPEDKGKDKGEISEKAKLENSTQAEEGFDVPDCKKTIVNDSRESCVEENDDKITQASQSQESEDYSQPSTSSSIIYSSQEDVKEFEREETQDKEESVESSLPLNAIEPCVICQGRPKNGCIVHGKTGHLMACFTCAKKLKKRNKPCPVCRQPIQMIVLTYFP

This assay concerns the target E3 ubiquitin-protein ligase Mdm2 (Homo sapiens, UniProt Q00987). The experiment in a line: HTRF2 Assay: As the potencies of the HDM2 inhibitors increased, an improved HTRF assay (HTRF2 assay) was developed. All assay conditions remained the same as described above, with the exception of the following changes in reagent concentrations: 0.2 nM GST-hMDM2 (1-188), 0.5 nM biotinylated-p53 (1-83), 0.18 nM SA-XLent, and 100 mM KF.
For the compound `CCC[C@H](C(=O)N1CC(C(=O)O)C1)N1C(=O)[C@H](Cc2ccc(F)cc2)O[C@@H](c2ccc(Cl)cc2)[C@H]1c1ccc(Cl)cc1` (mixture of isomers), the IC50 turned out to be 524 nM. In turn, `CCC[C@H](C(=O)O)N1C(=O)CO[C@@H](c2ccc(Cl)cc2)[C@H]1c1cc2ccccc2[nH]1` (mixture of isomers) showed an IC50 of 1290 nM. Compound `O=C1[C@H](CCCO)O[C@@H](c2cccc(Cl)c2)[C@@H](c2ccc(Cl)cc2)N1CC1CC1` (mixture of isomers) came in with an IC50 of 7230 nM.
